# Source: ChEMBL document CHEMBL5653615 (J Biol Chem, 2013)
# Experiments:
# [1] = target: Fibroblast growth factor receptor 4 (Homo sapiens) (UniProt P22455); assay: Inhibition of human FGFR4 at 500 nM by HotSpot assay relative to control
# [2] = target: T1, Ephrin type-B receptor 2 (Homo sapiens) (UniProt P29323); assay: Inhibition of human EPHB2 at 500 nM by HotSpot assay relative to control
# T1 sequence (whole entry): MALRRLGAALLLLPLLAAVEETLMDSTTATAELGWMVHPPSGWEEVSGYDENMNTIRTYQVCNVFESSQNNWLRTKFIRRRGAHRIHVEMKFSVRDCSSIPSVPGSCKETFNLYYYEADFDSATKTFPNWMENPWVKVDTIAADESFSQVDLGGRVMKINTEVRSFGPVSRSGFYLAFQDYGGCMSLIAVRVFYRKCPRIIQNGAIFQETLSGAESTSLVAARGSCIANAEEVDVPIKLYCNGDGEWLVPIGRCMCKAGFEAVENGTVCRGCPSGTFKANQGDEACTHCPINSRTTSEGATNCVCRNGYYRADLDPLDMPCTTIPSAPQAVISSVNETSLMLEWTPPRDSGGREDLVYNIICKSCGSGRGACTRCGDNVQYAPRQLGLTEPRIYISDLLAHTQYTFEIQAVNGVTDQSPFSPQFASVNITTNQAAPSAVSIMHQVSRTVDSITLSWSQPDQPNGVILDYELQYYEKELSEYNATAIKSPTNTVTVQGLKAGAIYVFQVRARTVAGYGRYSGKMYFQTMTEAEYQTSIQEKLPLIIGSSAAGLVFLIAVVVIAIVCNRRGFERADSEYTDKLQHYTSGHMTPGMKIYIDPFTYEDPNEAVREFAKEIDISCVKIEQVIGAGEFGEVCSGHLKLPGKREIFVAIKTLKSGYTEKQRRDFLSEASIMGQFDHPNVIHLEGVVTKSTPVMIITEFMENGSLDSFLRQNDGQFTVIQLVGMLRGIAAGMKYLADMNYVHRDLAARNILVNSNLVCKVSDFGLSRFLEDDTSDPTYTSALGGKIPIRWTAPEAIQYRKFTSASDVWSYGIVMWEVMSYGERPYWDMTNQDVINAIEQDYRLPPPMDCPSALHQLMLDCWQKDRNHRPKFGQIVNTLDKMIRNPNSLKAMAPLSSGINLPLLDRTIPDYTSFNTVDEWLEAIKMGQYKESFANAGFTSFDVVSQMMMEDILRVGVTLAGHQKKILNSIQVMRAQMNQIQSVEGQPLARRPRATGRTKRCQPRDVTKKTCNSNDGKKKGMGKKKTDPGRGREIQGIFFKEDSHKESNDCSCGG
# [3] = target: Dual specificity mitogen-activated protein kinase kinase 1 (Homo sapiens) (UniProt Q02750); assay: Inhibition of human MEK1 at 500 nM by HotSpot assay relative to control
# [4] = target: T2, Activin receptor type-1 (Homo sapiens) (UniProt Q04771); assay: Inhibition of human ALK2 at 500 nM by HotSpot assay relative to control
# T2 sequence (whole entry): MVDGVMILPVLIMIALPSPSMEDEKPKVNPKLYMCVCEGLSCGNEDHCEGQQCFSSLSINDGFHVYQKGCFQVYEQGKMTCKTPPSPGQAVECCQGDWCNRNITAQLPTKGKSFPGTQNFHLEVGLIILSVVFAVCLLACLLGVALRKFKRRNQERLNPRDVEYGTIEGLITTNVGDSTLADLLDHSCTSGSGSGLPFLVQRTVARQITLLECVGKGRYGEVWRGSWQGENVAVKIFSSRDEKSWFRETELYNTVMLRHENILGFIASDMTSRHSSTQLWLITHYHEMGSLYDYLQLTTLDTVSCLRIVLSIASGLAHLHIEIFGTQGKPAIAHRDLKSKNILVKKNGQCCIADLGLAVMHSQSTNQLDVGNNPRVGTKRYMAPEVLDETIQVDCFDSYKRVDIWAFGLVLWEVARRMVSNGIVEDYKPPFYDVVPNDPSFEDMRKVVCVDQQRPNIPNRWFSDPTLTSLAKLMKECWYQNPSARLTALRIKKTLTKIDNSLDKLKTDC
# [5] = target: T3, cGMP-dependent protein kinase 2 (Homo sapiens) (UniProt Q13237); assay: Inhibition of human PRKG2 at 500 nM by HotSpot assay relative to control
# T3 sequence (whole entry): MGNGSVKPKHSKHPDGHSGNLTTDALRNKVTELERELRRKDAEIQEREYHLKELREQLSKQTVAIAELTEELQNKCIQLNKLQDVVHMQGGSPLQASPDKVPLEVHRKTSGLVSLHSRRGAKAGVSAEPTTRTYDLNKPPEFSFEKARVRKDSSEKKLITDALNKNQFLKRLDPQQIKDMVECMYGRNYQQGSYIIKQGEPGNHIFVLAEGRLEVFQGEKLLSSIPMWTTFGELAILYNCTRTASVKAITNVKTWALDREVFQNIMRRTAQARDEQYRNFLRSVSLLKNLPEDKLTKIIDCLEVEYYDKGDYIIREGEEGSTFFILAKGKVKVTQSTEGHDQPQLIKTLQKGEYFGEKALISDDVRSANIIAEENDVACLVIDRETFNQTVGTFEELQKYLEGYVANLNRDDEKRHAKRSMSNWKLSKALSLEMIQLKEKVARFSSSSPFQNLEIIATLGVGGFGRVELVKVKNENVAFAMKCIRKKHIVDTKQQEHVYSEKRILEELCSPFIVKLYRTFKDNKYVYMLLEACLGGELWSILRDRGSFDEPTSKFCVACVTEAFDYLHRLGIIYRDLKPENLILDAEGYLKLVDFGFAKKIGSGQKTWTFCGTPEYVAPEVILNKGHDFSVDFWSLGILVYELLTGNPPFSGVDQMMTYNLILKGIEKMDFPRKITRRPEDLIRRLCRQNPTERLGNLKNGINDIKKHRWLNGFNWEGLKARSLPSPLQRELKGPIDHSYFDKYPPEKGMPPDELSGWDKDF
# [6] = target: T4, Serine/threonine-protein kinase NLK (Homo sapiens) (UniProt Q9UBE8); assay: Inhibition of human NLK at 500 nM by HotSpot assay relative to control
# T4 sequence (whole entry): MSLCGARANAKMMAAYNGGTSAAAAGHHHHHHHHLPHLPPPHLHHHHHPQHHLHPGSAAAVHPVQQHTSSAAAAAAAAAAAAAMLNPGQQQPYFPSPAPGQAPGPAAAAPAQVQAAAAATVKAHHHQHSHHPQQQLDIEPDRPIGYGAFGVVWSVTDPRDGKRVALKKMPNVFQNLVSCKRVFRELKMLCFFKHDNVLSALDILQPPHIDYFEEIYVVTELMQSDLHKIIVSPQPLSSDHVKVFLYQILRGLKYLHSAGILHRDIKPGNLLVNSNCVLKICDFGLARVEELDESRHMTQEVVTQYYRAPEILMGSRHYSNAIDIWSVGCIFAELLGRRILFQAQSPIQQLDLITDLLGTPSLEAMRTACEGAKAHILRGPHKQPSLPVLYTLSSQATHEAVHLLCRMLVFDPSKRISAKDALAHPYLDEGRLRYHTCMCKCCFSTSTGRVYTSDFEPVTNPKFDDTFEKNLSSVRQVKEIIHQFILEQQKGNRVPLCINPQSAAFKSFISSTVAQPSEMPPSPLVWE
# Sequence of Dual specificity mitogen-activated protein kinase kinase 1 (Homo sapiens) (Q02750 whole entry): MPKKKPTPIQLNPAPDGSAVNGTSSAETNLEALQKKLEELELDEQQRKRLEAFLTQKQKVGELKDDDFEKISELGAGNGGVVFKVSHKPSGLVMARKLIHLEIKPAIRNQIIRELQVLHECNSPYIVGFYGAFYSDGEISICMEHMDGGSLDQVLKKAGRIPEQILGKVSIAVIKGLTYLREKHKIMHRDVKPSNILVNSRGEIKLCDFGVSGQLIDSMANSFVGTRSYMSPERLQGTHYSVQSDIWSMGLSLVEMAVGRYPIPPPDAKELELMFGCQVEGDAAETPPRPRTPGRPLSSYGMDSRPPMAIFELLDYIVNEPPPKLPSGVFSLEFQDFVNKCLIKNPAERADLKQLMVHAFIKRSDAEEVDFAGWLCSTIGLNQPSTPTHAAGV
# Sequence of Fibroblast growth factor receptor 4 (Homo sapiens) (P22455 22-802 limits assumed): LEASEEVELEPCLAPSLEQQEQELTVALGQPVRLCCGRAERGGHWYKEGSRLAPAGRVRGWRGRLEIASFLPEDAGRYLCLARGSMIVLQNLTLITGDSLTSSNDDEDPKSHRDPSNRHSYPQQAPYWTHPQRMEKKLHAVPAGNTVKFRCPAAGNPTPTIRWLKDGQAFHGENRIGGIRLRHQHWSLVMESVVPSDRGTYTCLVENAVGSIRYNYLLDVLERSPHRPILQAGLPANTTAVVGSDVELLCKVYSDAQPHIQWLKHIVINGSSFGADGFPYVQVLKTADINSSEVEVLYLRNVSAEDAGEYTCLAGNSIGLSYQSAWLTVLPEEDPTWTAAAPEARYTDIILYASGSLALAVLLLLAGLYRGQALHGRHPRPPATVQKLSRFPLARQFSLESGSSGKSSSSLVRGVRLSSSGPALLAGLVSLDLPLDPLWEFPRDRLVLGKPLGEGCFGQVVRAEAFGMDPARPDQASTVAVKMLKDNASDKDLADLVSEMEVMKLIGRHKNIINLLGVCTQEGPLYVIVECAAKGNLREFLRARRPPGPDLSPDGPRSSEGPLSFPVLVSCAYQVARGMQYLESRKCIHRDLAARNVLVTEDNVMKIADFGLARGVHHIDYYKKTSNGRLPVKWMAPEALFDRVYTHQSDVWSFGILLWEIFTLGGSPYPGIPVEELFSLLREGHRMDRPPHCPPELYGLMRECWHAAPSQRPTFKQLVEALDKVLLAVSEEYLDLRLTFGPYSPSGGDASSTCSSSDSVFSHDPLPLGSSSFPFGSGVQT
Compound,inhibition [1] [%],inhibition [2] [%],inhibition [3] [%],inhibition [4] [%],inhibition [5] [%],inhibition [6] [%]
Nc1n[nH]c2nnc(-c3c(-c4ccccc4)nn4ccccc34)cc12,-3.98,6.94,5.65,-7.19,-3.62,-2.21
Oc1n[nH]c2nnc(-c3c(-c4ccccc4)nn4ccccc34)cc12,-3.29,5.22,5.15,0.23,1.76,-0.83
